{"source": "paper PMC7031741", "about": "(Journal of Ginseng Research, 2018)", "molecular_target": "ABCB1 (P-glycoprotein, P-gp) (Homo sapiens, UniProt P08183)", "sequence (P08183 whole entry)": "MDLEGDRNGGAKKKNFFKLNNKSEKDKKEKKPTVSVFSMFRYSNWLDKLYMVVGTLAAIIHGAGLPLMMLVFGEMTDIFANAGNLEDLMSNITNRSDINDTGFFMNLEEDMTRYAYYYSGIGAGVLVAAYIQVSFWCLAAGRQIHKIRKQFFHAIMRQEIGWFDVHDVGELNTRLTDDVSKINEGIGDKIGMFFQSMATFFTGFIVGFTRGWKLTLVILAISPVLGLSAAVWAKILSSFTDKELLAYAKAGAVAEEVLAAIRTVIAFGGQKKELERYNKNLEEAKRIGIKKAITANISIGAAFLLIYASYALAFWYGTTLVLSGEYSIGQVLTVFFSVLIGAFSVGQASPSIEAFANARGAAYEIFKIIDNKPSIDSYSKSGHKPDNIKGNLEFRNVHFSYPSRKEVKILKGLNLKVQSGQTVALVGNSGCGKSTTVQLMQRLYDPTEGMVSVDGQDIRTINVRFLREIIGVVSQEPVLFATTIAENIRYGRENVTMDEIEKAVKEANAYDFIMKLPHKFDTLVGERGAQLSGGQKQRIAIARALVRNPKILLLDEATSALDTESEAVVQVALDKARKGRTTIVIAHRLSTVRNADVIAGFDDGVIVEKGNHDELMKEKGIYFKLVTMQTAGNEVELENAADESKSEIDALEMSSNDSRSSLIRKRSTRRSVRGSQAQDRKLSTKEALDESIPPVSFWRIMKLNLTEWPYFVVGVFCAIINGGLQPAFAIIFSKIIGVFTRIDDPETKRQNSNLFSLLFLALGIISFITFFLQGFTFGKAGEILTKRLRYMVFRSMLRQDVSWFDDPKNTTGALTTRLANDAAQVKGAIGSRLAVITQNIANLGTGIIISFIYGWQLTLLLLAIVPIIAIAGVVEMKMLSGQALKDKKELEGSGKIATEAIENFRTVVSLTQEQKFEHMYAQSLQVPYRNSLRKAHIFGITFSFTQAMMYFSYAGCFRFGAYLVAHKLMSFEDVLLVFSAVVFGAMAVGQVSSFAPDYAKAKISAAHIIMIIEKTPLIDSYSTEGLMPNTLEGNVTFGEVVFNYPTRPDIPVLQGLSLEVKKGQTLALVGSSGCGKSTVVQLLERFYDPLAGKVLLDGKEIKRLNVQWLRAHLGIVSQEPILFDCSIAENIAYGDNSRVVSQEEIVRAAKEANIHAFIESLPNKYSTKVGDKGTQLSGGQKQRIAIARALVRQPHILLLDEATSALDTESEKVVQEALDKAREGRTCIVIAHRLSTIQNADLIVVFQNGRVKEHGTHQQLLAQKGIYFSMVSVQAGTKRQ", "experiment": "Pgp-Glo ATPase assay: inhibition of verapamil-stimulated ABCB1 ATPase", "type": "biochemical", "data": [{"smiles": "CC(C)=CC/C=C(\\C)[C@H]1CC[C@]2(C)[C@@H]1[C@H](O)C[C@@H]1[C@@]3(C)CC[C@H](O[C@@H]4O[C@H](CO)[C@@H](O)[C@H](O)[C@H]4O[C@@H]4O[C@H](CO)[C@@H](O)[C@H](O)[C@H]4O)C(C)(C)[C@@H]3CC[C@]12C", "note": "[Rg5, Ginsenoside Rg5]", "values": [{"measurement": "IC50", "result": 9.16, "unit": "µM"}]}]}
